Key:
Type in all cases: physicochemical
[1] = Glass transition temperature (Tg) of meltable drug in amorphous form by Differential Scanning calorimetry (DSC)
Excerpt: (§1) The meltable active pharmaceutical ingredient forms a stable amorphous form following melting and cooling; in this context, the term “stable” as applied to the amorphous form means that the thermodynamic tendency of the active pharmaceutical ingredient to crystallize over one year is resisted. […] In this context, minimal degradation means that at least 90% of the active pharmaceutical ingredient retains its therapeutic activity following melting and cooling. […] Also, analysis of ^1H and ^13C NMR confirmed the chemical structure of ITZ, with molecular formula C35H38Cl2N8O4. […] Which indicating the chemical stability of both ITZ melts (FIG. 5). Differential Scanning calorimetry (DSC) may be employed to determine the glass transition temperature (Tg) of a meltable drug in amorphous form DSC utilizes a heat flow technique and compares the amount of heat supplied to the test sample and a similarly heated “reference” to determine transition points. Tg is typically calculated by using a half-height technique in the transition region FIG. 6.

[2] = Ability to form a glassy, amorphous form following heat-melting and cooling (XRD)
Experimental: As used herein, the term “meltable drug” or “meltable active pharmaceutical ingredient” refers to an active pharmaceutical ingredient that can be heat-melted to a molten form and has the following properties: • solid at 25° C.; • ability to form a glassy, amorphous form following heat-melting and cooling; and • the amorphous form having a glass transition temperature typically greater than 25° C. Examples of meltable drugs include; antifungals (for example, Itraconazole, Clotrimazole, Ketoconazole, Fluconazole, or derivatives or variants thereof), corticosteroids (for example, Estradiol, betamethasone valerate or derivatives or variants thereof), Anti-inflammatory drugs (for example, Celecoxib, Diclofenac, Sulindac, Indomethacin), Antimicrobials and Antibiotics (for example, Cefuroxime […], Chloramphenicol or derivatives or variants thereof), Cardiovascular and Antihypertensives (Carvedilol, Nifedipine or derivatives or variants thereof), Autonomic nervous system and Psychiatrics medications (Droperidol or derivatives or variants thereof), Antilipidemic and Cholesterol medications (Probucol, Simvastatin or derivatives or variants thereof), Gastrointestinal medications (Famotidine, Omeprazole or derivatives or variants thereof), Respiratory medications, Endocrine medications, Immunomodulators, Oncology drugs, Renal medications, Neurologic medications and anti-migraine (Zolmitriptan or derivatives or variants thereof). Typically, the meltable drug forms a stable amorphous form following melting and cooling; in this context, the formation of amorphous structure is confirmed by the XRD technique. X-ray powder Diffraction (XRD) is an analytical technique primarily used for phase identification of a crystalline material, in which the crystalline structure causes a beam of incident X-rays to diffract into many specific directions. It works best for materials that are crystalline or partially crystalline (i.e., that have periodic structural order) but is also used to study non-crystalline materials FIG. 3.

[3] = Chemical stability before and after melting for microneedle fabrication (LC-MS, 1H and 13C NMR)
Excerpt: as §1

Row | GLASS TRANSITION TEMP (TG ° C.) [1] [°C] | GLASSY AND AMORPHOPUS FORM [2] | chemical stability of melts (1H and 13C NMR difference versus unmelted ITZ) [3] | stability before and after melting (LC-MS fragmentation pattern) ([3]; LC-MS, ITZ vs ITZ melt) | SMILES
1 | 54 | YES |  |  | CCCCC(=O)O[C@]1(C(=O)CO)[C@@H](C)C[C@H]2[C@@H]3CCC4=CC(=O)C=C[C@]4(C)[C@@]3(F)[C@@H](O)C[C@@]21C [Betamethazone valerate]
2 | 32 | YES |  |  | Clc1ccccc1C(c1ccccc1)(c1ccccc1)n1ccnc1 [Clotrimazole]
3 | 53 | YES |  |  | O=C(O)Cc1ccccc1Nc1c(Cl)cccc1Cl [Diclofenac]
4 | 32 | YES |  |  | OC(Cn1cncn1)(Cn1cncn1)c1ccc(F)cc1F [Fluconazole]
5 |  |  | No difference |  | CCC(C)n1ncn(-c2ccc(N3CCN(c4ccc(OCC5COC(Cn6cncn6)(c6ccc(Cl)cc6Cl)O5)cc4)CC3)cc2)c1=O (centres unmarked) [ITZ melt1]
6 |  |  | No difference |  | CCC(C)n1ncn(-c2ccc(N3CCN(c4ccc(OCC5COC(Cn6cncn6)(c6ccc(Cl)cc6Cl)O5)cc4)CC3)cc2)c1=O (centres unmarked) [ITZ melt2]
7 | 45 | YES |  |  | COc1ccc2c(c1)c(CC(=O)O)c(C)n2C(=O)c1ccc(Cl)cc1 [Indomethacin]
8 |  |  |  | high stability | CCC(C)n1ncn(-c2ccc(N3CCN(c4ccc(OCC5COC(Cn6cncn6)(c6ccc(Cl)cc6Cl)O5)cc4)CC3)cc2)c1=O (centres unmarked) [Itraconazole]
9 | 46 | YES |  |  | CC(=O)N1CCN(c2ccc(OCC3COC(Cn4ccnc4)(c4ccc(Cl)cc4Cl)O3)cc2)CC1 (centres unmarked) [Ketoconazole]
10 | 75 | YES |  |  | CC1=C(CC(=O)O)c2cc(F)ccc2/C1=C\c1ccc([S+](C)[O-])cc1 (centres unmarked) [Sulindac]

Reference: US20220249819A1, “MICRONEEDLES, AND METHODS FOR THE MANUFACTURE THEREOF” (UNIVERSITY COLLEGE CORK - NATIONAL UNIVERSITY OF IRELAND, …, priority 2019, published 2022)
